Laboratory results published in patent publication EP4745135A1 (Gluetacs Therapeutics (Shanghai) Co., Ltd., priority 2023, dated 2025).

Columns and labels:
[1] = target: T1, CK1α (Homo sapiens, UniProt P48729+Q96SW2); experiment: Western blot, degradation of substrate protein in hPBMCs; assay type: cell-based
T1 construct: effects of the compounds of the present disclosure on the expression of target proteins in cells; endogenous in cells; host or cells: human PBMCs (Milecell Biotechnologies)

[2] = target: T2, IKZF1 (Homo sapiens, UniProt Q13422+Q96SW2); experiment: as above; assay type: cell-based
T2 construct: effects of the compounds of the present disclosure on the expression of target proteins in cells; endogenous in cells; host or cells: human PBMCs (Milecell Biotechnologies)
T2 sequence (Q13422 whole entry): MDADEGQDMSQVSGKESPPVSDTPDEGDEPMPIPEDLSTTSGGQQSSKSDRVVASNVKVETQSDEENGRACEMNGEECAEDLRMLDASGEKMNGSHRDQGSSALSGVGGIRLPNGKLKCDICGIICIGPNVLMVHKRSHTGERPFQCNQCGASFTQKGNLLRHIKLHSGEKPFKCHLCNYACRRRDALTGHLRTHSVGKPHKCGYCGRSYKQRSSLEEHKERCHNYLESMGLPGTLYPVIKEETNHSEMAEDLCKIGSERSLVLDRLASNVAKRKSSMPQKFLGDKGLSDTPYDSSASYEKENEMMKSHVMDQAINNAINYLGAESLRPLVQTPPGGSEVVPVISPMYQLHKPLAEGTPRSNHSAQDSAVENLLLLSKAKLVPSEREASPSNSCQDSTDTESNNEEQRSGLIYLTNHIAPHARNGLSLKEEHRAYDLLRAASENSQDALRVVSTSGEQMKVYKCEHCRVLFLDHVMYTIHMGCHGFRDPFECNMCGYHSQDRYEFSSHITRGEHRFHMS
T2 sequence (Q96SW2 whole entry): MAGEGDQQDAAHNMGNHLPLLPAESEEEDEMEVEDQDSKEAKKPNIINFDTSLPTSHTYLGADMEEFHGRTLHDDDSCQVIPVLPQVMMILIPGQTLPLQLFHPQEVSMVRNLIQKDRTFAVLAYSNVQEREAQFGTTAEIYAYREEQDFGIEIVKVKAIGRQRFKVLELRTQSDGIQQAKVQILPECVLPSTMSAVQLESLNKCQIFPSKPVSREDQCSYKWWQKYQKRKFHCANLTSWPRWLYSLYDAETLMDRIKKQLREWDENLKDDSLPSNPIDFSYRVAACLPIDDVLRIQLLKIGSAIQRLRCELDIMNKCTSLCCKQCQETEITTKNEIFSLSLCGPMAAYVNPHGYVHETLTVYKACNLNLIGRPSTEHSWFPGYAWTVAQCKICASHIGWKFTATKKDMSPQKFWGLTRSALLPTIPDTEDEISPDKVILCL
T2 sequence (Q16531 whole entry partner): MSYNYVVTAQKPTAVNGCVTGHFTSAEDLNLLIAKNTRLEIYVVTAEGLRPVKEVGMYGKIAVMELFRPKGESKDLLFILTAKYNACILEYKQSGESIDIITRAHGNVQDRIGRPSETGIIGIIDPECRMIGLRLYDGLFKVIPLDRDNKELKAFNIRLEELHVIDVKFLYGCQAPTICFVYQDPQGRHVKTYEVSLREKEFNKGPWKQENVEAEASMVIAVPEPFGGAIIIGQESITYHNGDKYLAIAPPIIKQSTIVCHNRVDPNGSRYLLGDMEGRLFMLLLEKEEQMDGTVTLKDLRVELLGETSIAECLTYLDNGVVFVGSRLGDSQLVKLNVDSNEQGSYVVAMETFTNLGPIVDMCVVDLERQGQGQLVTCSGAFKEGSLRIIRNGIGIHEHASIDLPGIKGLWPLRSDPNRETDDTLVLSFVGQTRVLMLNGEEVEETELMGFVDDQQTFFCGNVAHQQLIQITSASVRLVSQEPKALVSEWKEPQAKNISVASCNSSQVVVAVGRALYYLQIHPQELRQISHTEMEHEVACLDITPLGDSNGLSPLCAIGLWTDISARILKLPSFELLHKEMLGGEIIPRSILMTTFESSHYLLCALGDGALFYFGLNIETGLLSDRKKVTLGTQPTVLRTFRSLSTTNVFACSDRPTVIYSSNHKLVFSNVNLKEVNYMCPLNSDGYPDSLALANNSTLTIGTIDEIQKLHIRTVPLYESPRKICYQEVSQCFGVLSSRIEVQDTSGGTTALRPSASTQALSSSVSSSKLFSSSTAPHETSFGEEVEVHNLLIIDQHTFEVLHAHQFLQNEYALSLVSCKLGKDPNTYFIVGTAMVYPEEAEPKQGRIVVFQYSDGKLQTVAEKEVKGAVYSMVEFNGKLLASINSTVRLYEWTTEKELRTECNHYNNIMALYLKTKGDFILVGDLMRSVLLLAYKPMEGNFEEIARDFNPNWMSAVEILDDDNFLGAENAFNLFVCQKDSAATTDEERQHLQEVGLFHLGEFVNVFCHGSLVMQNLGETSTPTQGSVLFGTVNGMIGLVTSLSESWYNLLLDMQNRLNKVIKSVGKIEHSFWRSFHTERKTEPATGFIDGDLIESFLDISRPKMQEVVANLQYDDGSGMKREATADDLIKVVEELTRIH

[3] = target: T3, IKZF2 (Homo sapiens, UniProt Q96SW2+Q9UKS7); experiment: as above; assay type: cell-based
T3 construct: effects of the compounds of the present disclosure on the expression of target proteins in cells; endogenous in cells; host or cells: human PBMCs (Milecell Biotechnologies)
T3 sequence (Q9UKS7 whole entry): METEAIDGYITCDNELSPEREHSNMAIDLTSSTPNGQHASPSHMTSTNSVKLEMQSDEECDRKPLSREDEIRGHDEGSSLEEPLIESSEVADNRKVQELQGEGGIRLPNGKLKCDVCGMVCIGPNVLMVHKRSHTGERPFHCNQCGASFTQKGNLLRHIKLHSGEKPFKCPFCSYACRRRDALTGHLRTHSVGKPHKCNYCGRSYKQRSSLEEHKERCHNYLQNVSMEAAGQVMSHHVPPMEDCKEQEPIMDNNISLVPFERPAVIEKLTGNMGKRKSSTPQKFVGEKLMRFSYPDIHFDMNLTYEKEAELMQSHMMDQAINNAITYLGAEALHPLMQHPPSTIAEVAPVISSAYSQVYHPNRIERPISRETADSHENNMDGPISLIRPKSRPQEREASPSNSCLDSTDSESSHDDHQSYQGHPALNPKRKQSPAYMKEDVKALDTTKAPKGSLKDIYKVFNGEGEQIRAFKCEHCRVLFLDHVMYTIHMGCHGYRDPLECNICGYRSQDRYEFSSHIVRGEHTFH
T3 sequence (Q96SW2 whole entry): as the sequence (Q96SW2 whole entry) above
T3 sequence (Q16531 whole entry partner): as the sequence (Q16531 whole entry partner) above

[4] = target: T4, IKZF3 (Homo sapiens, UniProt Q96SW2+Q9UKT9); experiment: as above; assay type: cell-based
T4 construct: effects of the compounds of the present disclosure on the expression of target proteins in cells; endogenous in cells; host or cells: human PBMCs (Milecell Biotechnologies)
T4 sequence (Q9UKT9 whole entry): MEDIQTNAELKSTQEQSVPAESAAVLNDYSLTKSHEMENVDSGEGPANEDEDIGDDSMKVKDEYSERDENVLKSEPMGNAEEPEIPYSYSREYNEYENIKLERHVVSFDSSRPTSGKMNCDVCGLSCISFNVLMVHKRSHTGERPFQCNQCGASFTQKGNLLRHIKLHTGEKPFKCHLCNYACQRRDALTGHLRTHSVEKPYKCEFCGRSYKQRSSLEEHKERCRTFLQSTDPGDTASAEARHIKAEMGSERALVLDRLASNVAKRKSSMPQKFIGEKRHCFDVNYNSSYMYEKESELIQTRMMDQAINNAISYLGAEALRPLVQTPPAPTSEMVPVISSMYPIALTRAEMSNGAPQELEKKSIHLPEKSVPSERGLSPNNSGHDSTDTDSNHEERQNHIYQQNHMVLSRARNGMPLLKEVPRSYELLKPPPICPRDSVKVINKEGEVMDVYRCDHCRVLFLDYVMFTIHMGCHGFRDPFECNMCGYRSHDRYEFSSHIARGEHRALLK
T4 sequence (Q96SW2 whole entry): as the sequence (Q96SW2 whole entry) above
T4 sequence (Q16531 whole entry partner): as the sequence (Q16531 whole entry partner) above

[5] = target: T5, WEE1 (Homo sapiens, UniProt P30291+Q96SW2); experiment: as above; assay type: cell-based
T5 construct: effects of the compounds of the present disclosure on the expression of target proteins in cells; endogenous in cells; host or cells: human PBMCs (Milecell Biotechnologies)
T5 sequence (P30291 whole entry): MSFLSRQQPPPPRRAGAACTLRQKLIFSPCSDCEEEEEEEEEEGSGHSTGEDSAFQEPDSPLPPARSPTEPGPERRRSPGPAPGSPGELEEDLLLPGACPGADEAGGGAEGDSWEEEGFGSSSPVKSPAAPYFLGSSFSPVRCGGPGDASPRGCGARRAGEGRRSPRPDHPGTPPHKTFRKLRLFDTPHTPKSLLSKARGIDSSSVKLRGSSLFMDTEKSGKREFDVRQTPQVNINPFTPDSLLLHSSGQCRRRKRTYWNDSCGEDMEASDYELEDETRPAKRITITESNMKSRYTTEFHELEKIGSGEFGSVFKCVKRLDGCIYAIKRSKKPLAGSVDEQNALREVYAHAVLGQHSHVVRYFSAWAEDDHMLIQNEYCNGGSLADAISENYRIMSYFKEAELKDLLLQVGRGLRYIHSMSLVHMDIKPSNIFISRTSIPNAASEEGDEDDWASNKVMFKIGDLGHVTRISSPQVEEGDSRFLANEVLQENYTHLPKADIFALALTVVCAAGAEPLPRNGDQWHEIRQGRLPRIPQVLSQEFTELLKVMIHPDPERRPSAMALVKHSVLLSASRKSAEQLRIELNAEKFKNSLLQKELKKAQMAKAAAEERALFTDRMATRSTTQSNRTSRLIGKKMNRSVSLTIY
T5 sequence (Q96SW2 whole entry): as the sequence (Q96SW2 whole entry) above
T5 sequence (Q16531 whole entry partner): as the sequence (Q16531 whole entry partner) above

[6] = tested on: GSPT1; experiment: as above; assay type: cell-based, Human
[7] = target: T6, human Cereblon WT GST-tagged protein (Homo sapiens, UniProt Q96SW2); experiment: CRBN-binding affinity, HTRF (CEREBLON BINDING kit); details: for inhibition at 0.5 µM: read-out: Inhibition Rate at 0.5 µM (%); for inhibition at 2 µM: read-out: Inhibition Rate at 2 µM (%)
T6 construct: purchased CISBIO 64BDCRBNPEH
T6 sequence (Q96SW2 whole entry): as the sequence (Q96SW2 whole entry) above

[8] = tested on: Human acute T lymphocytic leukemia cell (Molt4); experiment: Tumor cell proliferation inhibition (CellTiter-Meiluncell luminescent cell viability assay); details: MOLT-4, 96 h; for inhibition at 0.01 µM: read-out: Inhibition Rate at 10 nM (%); for inhibition at 0.5 µM: read-out: Inhibition Rate at 500 nM (%)
[9] = tested on: Human myeloid monocytic leukemia cell (MV-4-11); experiment: as above; details: MV4-11, 96 h; for inhibition at 0.01 µM: read-out: Inhibition Rate at 10 nM (%); for inhibition at 0.5 µM: read-out: Inhibition Rate at 500 nM (%)
[10] = tested on: Human multiple myeloma cell (MM.1S); experiment: as above; details: Homo sapiens, MM1.S, 96 h; for inhibition at 0.01 µM: read-out: Inhibition Rate at 10 nM (%); for inhibition at 0.5 µM: read-out: Inhibition Rate at 500 nM (%)
Procedure: The tumor cells used herein were cultured in a cell culture medium listed in table 2 at 37°C in an incubator with 5% CO2. Prior to experimentation, all cell lines used were correctly identified by STR profiling, and tested negative for mycoplasma contamination using a mycoplasma detection kit through routine screenings.
The IC50 values of the compounds of the present disclosure (including the compounds in Table 1 and Examples) were determined using the CellTiter-Meiluncell Luminescent Cell Viability Assay Kit from Dalian Meilun Biotech Co., Ltd. The detailed procedure is as follows: Tumor cells were seeded in 96-well cell culture plates at the densities specified in Table 3. On the following day, the test compounds of the present disclosure were subjected to serial dilution. The dilution can be performed according to one of the following two methods: • (1) The first dilution method: The test compounds of the present disclosure (including the compounds in Table 1 and Examples) were subjected to 5-fold serial dilutions starting from a highest concentration of 2000 µM, resulting in a total of 9 concentrations from high to low (2000, 400, 80, 16, 3.2, 0.64, 0.128, 0.0256, 0.00512 µM). Subsequently, 0.5 µL of the test compound dilution was transferred into the 96-well plate containing the cells, with each well containing 100 µL of cell culture medium. […] Into the 96-well plate, the diluted test compounds and corresponding detection reagents were added, resulting in final test compound concentrations of 500 nM and 10 nM, respectively. The experimental procedure is described below using the diluted 2 µM test compound as an example.
0.5 µL of the aforementioned diluted compound of the present disclosure (including the compounds in Table 1 and Examples) was added to the seeded cells in 100 µL of medium, yielding a final test compound concentration of 10 nM. After the cells were treated with the compounds of the present disclosure for a specified period, the cell viability assay reagent was added to the culture medium according to the kit's instructions to determine cell viability. […] All controls were treated using the same procedure as the compounds of the present disclosure. The growth inhibition curves for the compounds of the present disclosure were plotted using Prism GraphPad software, and the IC50 values were calculated therefrom.

[11] = 24 hours treatment, compounds at 50 nM and 500 nM (concentration behind the class not stated)
[12] = Western blot, 24 hours of compound treatment, compounds tested at 50 nM and 500 nM (concentration for the table not stated)

T1 sequence (P48729 whole entry): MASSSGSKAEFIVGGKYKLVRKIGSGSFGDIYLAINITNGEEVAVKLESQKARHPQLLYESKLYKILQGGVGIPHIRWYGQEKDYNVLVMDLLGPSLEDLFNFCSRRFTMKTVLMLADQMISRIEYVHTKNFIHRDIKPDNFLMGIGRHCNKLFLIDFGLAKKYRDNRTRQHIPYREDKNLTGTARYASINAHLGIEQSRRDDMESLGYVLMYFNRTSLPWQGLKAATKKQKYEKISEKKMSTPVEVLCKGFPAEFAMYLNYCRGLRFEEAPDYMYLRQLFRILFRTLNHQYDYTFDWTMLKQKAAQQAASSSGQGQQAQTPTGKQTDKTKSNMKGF
T1 sequence (Q96SW2 whole entry): as the sequence (Q96SW2 whole entry) above
T1 sequence (Q16531 whole entry partner): as the sequence (Q16531 whole entry partner) above

SMILES | CK1α substrate protein remaining % [1, 11] | IKZF 1 substrate protein remaining % [2, 11] | IKZF2 substrate protein remaining % [3, 11] | IKZF3 substrate protein remaining % [4, 11] | Wee1 substrate protein remaining % [5, 11] | GSPT1 substrate protein remaining % [6, 11] | inhibition at 0.5 µM [7] [%] | inhibition at 2 µM [7] [%] | inhibition at 0.01 µM [8] [%] | inhibition at 0.5 µM [8] [%] | inhibition at 0.01 µM [9] [%] | inhibition at 0.5 µM [9] [%] | CK1α substrate protein remaining % [1, 12] | IKZF 1 substrate protein remaining % [2, 12] | IKZF2 substrate protein remaining % [3, 12] | IKZF3 substrate protein remaining % [4, 12] | Wee1 substrate protein remaining % [5, 12] | GSPT1 substrate protein remaining % [6, 12] | inhibition at 0.01 µM [10] [%] | inhibition at 0.5 µM [10] [%]
Cc1cc(N2CCN(Cc3ccc4c(c3)CN(C3CCC(=O)NC3=O)C4=S)CC2)cs1 (stereo not drawn) [GT-08170, 3-(5-((4-(5-methylthiophen-3-yl)piperazin-1-yl)methyl)-1-thioxoisoindolin-2-yl)piperidine-2,6-dione] | A (0% ≤ substrate protein remaining % ≤ 80%) | B (80%< substrate protein remaining %≤ 100%) | A (0% ≤ substrate protein remaining % ≤ 80%) | A (0% ≤ substrate protein remaining % ≤ 80%) | B (80%< substrate protein remaining %≤ 100%) | A (0% ≤ substrate protein remaining % ≤ 80%) | 60 to 80 | 80 to 100 | 5 to 10 | 60 to 70 | 25 to 30 | 60 to 80 |  |  |  |  |  |  |  | 
COc1ccccc1N1CCN(Cc2ccc3c(c2)CN(C2CCC(=O)NC2=O)C3=S)CC1 (stereo not drawn) [GT-08236, 3-(5-((4-(2-methoxyphenyl)piperazin-1-yl)methyl)-1-thioxoisoindolin-2-yl)piperidine-2,6-dione] |  |  |  |  |  |  | 40 to 53 | 80 to 100 | 10 to 20 | 40 to 50 | 10 to 18 | 60 to 80 | B (80%< substrate protein remaining %≤ 100%) | B (80%< substrate protein remaining %≤ 100%) | B (80%< substrate protein remaining %≤ 100%) | B (80%< substrate protein remaining %≤ 100%) | B (80%< substrate protein remaining %≤ 100%) | A (0% ≤ substrate protein remaining % ≤ 80%) |  | 
O=C1CCC(N2Cc3cc(CN4CCN(c5ccc(Cl)c(Cl)c5)CC4)ccc3C2=S)C(=O)N1 (stereo not drawn) [GT-08612, 3-(5-((4-(3,4-dichlorophenyl)piperazin-1-yl)methyl)-1-thioxoisoindolin-2-yl)piperidine-2,6-dione] |  |  |  |  |  |  | 30 to 40 | 60 to 80 | 10 to 20 | 50 to 60 |  |  | B (80%< substrate protein remaining %≤ 100%) | B (80%< substrate protein remaining %≤ 100%) | B (80%< substrate protein remaining %≤ 100%) | B (80%< substrate protein remaining %≤ 100%) | B (80%< substrate protein remaining %≤ 100%) | A (0% ≤ substrate protein remaining % ≤ 80%) |  | 
Cc1ccc(Cl)cc1N1CCN(Cc2ccc3c(c2)CN(C2CCC(=O)NC2=O)C3=S)CC1 (stereo not drawn) [GT-08615, 3-(5-((4-(5-chloro-2-methylphenyl)piperazin-1-yl)methyl)-1-thioxoisoindolin-2-yl)piperidine-2,6-dione] |  |  |  |  |  |  | 30 to 40 | 60 to 80 | 5 to 10 | 50 to 60 |  |  | B (80%< substrate protein remaining %≤ 100%) | B (80%< substrate protein remaining %≤ 100%) | B (80%< substrate protein remaining %≤ 100%) | B (80%< substrate protein remaining %≤ 100%) | B (80%< substrate protein remaining %≤ 100%) | A (0% ≤ substrate protein remaining % ≤ 80%) | 10 to 20 | 40 to 50
O=C1CCC(N2Cc3c(CN4CCN(Cc5ccc(-c6ccc(Cl)cc6)cc5)CC4)cccc3C2=S)C(=O)N1 (stereo not drawn) [GT-08960, 3-(4-((4-((4'-chloro-[1,1'-biphenyl]-4-yl)methyl)piperazin-1-yl)methyl)-1-thioxoisoindolin-2-yl)piperidine-2,6-dione] |  |  |  |  |  |  | 53 to 60 | 80 to 100 | 20 to 30 | 40 to 50 |  |  |  |  |  |  |  |  |  | 
O=C1CCC(N2Cc3cc(CN4CCN(c5ccc(Cl)cn5)CC4)ccc3C2=S)C(=O)N1 (stereo not drawn) [GT-09217, 3-(5-((4-(5-chloropyridin-2-yl)piperazin-1-yl)methyl)-1-thioxoisoindolin-2-yl)piperidine-2,6-dione] |  |  |  |  |  |  | 60 to 80 | 80 to 100 |  |  | 40 to 60 | 80 to 100 | B (80%< substrate protein remaining %≤ 100%) | B (80%< substrate protein remaining %≤ 100%) | B (80%< substrate protein remaining %≤ 100%) | B (80%< substrate protein remaining %≤ 100%) | B (80%< substrate protein remaining %≤ 100%) | A (0% ≤ substrate protein remaining % ≤ 80%) | 30 to 40 | 60 to 70
O=C1CCC(N2Cc3cc(CN4CCN(c5ccnc(Cl)c5Br)CC4)ccc3C2=S)C(=O)N1 (stereo not drawn) [GT-09240, 3-(5-((4-(3-bromo-2-chloropyridin-4-yl)piperazin-1-yl)methyl)-1-thioxoisoindolin-2-yl)piperidine-2,6-dione] | B (80%< substrate protein remaining %≤ 100%) | A (0% ≤ substrate protein remaining % ≤ 80%) | B (80%< substrate protein remaining %≤ 100%) | B (80%< substrate protein remaining %≤ 100%) | B (80%< substrate protein remaining %≤ 100%) | A (0% ≤ substrate protein remaining % ≤ 80%) | 80 to 100 | 80 to 100 | 50 to 60 | 30 to 40 |  |  |  |  |  |  |  |  |  | 
O=C1CCC(N2Cc3cc(CN4CCN(c5c[nH]c6ncccc56)CC4)ccc3C2=S)C(=O)N1 (stereo not drawn) [GT-09261, 3-(5-((4-(1H-pyrrolo[2,3-b]pyridin-3-yl)piperazin-1-yl)methyl)-1-thioxoisoindolin-2-yl)piperidine-2,6-dione] | B (80%< substrate protein remaining %≤ 100%) | B (80%< substrate protein remaining %≤ 100%) | B (80%< substrate protein remaining %≤ 100%) | B (80%< substrate protein remaining %≤ 100%) | B (80%< substrate protein remaining %≤ 100%) | A (0% ≤ substrate protein remaining % ≤ 80%) | 53 to 60 | 80 to 100 |  |  | 40 to 60 | 40 to 60 |  |  |  |  |  |  | 40 to 50 | 40 to 50
O=C1CCC(N2Cc3cc(CN4CCN(c5c(Cl)cncc5Br)CC4)ccc3C2=S)C(=O)N1 (stereo not drawn) [GT-09264, 3-(5-((4-(3-bromo-5-chloropyridin-4-yl)piperazin-1-yl)methyl)-1-thioxoisoindolin-2-yl)piperidine-2,6-dione] | B (80%< substrate protein remaining %≤ 100%) | B (80%< substrate protein remaining %≤ 100%) | B (80%< substrate protein remaining %≤ 100%) | B (80%< substrate protein remaining %≤ 100%) | B (80%< substrate protein remaining %≤ 100%) | A (0% ≤ substrate protein remaining % ≤ 80%) | 80 to 100 | 80 to 100 |  |  | 30 to 40 | 40 to 60 |  |  |  |  |  |  | 30 to 40 | 40 to 50
